In patent US20050187240A1, “Aaptamine and isoaaptamine and structural modifications thereof” (The Arizona Board of Regents, Acting for and on behalf of …, priority 2004, published 2005):
≈ marks a conversion by molar mass, not a printed value. Read-outs that look alike come from different tables or passages of the source.

Key:
tubulin = experiment: Tubulin polymerization (assembly) inhibition; assay type: biochemical; conditions: b138 series; 20 minutes incubation at 30° C.; read-out: IC50 for inhibition of extent of tubulin assembly
Method: Only minimal inhibitory activity was observed. While compounds 15 and 8 did inhibit the rate of polymerization by over 50% at 40 μM (the highest concentration examined), an IC50 value for inhibition of assembly extent was obtained only for compound 18. […] Thus, it seems unlikely that the cytotoxic mechanism for these aaptamine analogs derives from an interaction with tubulin.
A number of the aaptamine derivatives whose synthesis is described here were examined for potential effects on tubulin assembly. These were compounds 2, 4, 5, 9a-c, and 10a-d. […] For comparison, in experiments performed contemporaneously, the potent colchicine site drug combretastatin A-4 yielded an IC50 value of about 2 μM.

Escherichia coli = experiment: Broth microdilution susceptibility assay, Escherichia coli; assay type: cell-based
[1] = tested on: murine P388 lymphocytic leukemia cell line; experiment: Cancer cell growth inhibition, murine P388 lymphocytic leukemia cell line; assay type: cell-based; conditions: for IC50: Mus musculus
Text: (§1) Evaluation of demethyloxyaaptamine (3), aaptamine (1), isoaaptamine (2) and hystatin 1 (11) against the Arizona State University Cancer Research Institute's human tumor cell line panel (Table 1) and the NCI 60-cell line human tumor screen were undertaken. (Boyd, M. R., Cancer: Principles and Practices of Oncology Updates; DeVita, et al., Eds; Lippincott: Philadelphia, 1989, Vol. 10, No. 3, pp. 1-12; Boyd, et al., Drug Development Research 1995, 34, 91-109; Boyd, M. R., et al. Cytotoxic Anticancer Drugs: Models and Concepts for Drug Discovery and Development; Valeriote, A., et al., Eds, Kluwer Academic Publishers: Amsterdam, 1992, pp. 11-34.)
(§2) Biology The cancer cell growth inhibitory properties were examined using the murine P388 lymphocytic leukemia cell line and a selection of human cancer cell lines.
(§3) All of the synthetic products were evaluated against a minipanel of human cancer cell lines, the murine P388 lymphocytic leukemia cell line and a selection of microorganisms.

PKC alpha [2] = target: T1, PKC alpha (Homo sapiens, UniProt P17252); experiment: Inhibition of [3H]phorbol 12,13-dibutyrate binding to PKC alpha; conditions: 30 μM compound; read-out: inhibition of [3H]phorbol 12,13-dibutyrate binding to PKC alpha
Method: Isoaaptamine (2) and derivatives 4, 5, 7, 8, and 14-18 were evaluated as ligands for PKC, based on the initial report of activity for isoaaptamine (Patil, et al., PCT Int. Appl. WO 95/0584 March 1995). Activity was measured at 30 μM compound using inhibition of [^3H-20]phorbol 12,13-dibutyrate binding to PKC alpha as described previously (Kazanietz, M. G., et al., Molecular Pharmacol., 1993, 44, 298). Assays were carried out with triplicate measurements in either single or triplicate experiments, depending on the compound.
Compounds 4, 5, 9a-c, and 10a-d were evaluated as ligands for PKC, based on the initial report of activity for isoaaptamine. Activity was measured at 30 μM compound using inhibition of [20-^3H]phorbol 12,13-dibutyrate binding to PKC alpha as described previously (Kazanietz, M. G., et al., Characterization of Ligand and Substrate Specificity for the Calcium-Dependent and Calcium-Independent Protein Kinase C Isoenzymes, Molecular Pharmacol. 1993, 44, 298-307). Assays were carried out with triplicate measurement in either single or triplicate experiments, depending on the compound. Inhibition by 9a and 9b was 6.4% and 9.2%, respectively. That by 10a, 10b, and 10d was 11.8%, 12.6%, and 16.0%, respectively. That by other derivatives was 5% or less. We conclude that these compounds show only very weak activity as ligands for PKC.

Micrococcus luteus = experiment: Broth microdilution susceptibility assay, Micrococcus luteus; assay type: cell-based
Enterobacter cloacae = experiment: Broth microdilution susceptibility assay, Enterobacter cloacae; assay type: cell-based
renal A498 = experiment: Cancer cell growth inhibition, renal A498; assay type: cell-based, human; conditions: Table 1
Text: (§4) (Boyd, M. R., Cancer: Principles and Practices of Oncology Updates; […], et al., Eds; Lippincott: Philadelphia, 1989, Vol. 10, No. 3, pp. 1-12; Boyd, et al., Drug Development Research 1995, 34, 91-109; Boyd, M. R., et al. Cytotoxic Anticancer Drugs: Models and Concepts for Drug Discovery and Development; Valeriote, A., et al., Eds, Kluwer Academic Publishers: Amsterdam, 1992, pp. 11-34.)

CNS SF-295 = experiment: Cancer cell growth inhibition, CNS SF-295; assay type: cell-based, human; conditions: Table 1
Text: as §4

Neisseria gonorrhoeae = experiment: Broth microdilution susceptibility assay, Neisseria gonorrhoeae; assay type: cell-based
lung NCI-H460 = experiment: Cancer cell growth inhibition, lung NCI-H460; assay type: cell-based, human; conditions: lung NCI-H460; for IC50: Homo sapiens
Text: as §1, §2, §3

[3] = Stability of the substance (observation); assay type: physicochemical
Text: When newly isolated, isoaaptamine (2) appears as a yellow colored powder that rapidly changes to dark green and finally brown or black, presumably due to air oxidation. […] For that purpose, isoaaptamine (2) was first phosphorylated with dibenzylphosphate (Pettit, G. R. et al., Anti-Cancer Drug Design 2000, 15, 203-216; Silverberg, L. J., Tetrahedron Lett. 1996, 37, 771-774). […] Scheme 2 below illustrates the aforementioned synthesis method. [drawing 17] Biology

Candida albicans = experiment: Broth microdilution susceptibility assay, Candida albicans; assay type: cell-based
Enterococcus faecalis = experiment: Broth microdilution susceptibility assay, Enterococcus faecalis; assay type: cell-based
CNS SF-268 = experiment: Cancer cell growth inhibition, CNS SF-268; assay type: cell-based, human; conditions: CNS SF-268; for IC50: Homo sapiens
Method: as §2, §3

Cryptococcus neoformans = experiment: Broth microdilution susceptibility assay, Cryptococcus neoformans; assay type: cell-based
Streptococcus pneumoniae = experiment: Broth microdilution susceptibility assay, Streptococcus pneumoniae; assay type: cell-based
Staphylococcus aureus = experiment: Broth microdilution susceptibility assay, Staphylococcus aureus; assay type: cell-based
melanoma SK-MEL-5 = experiment: Cancer cell growth inhibition, melanoma SK-MEL-5; assay type: cell-based, human; conditions: Table 1
Text: as §4

colon KM 20L2 = experiment: Cancer cell growth inhibition, colon KM 20L2; assay type: cell-based, human; conditions: colon KM 20L2; for IC50: Homo sapiens
Text: as §1, §2, §3

breast MCF-7 = experiment: Cancer cell growth inhibition, breast MCF-7; assay type: cell-based, human; conditions: breast MCF-7; for IC50: Homo sapiens, MCF7
Method: as §2, §3

[4] = tested on: Stenotrophomonas maltophilia; experiment: Broth microdilution susceptibility assay, Stenotrophomonas maltophilia; assay type: cell-based
pancreas BXPC-3 = experiment: Cancer cell growth inhibition, pancreas BXPC-3; assay type: cell-based, human; conditions: pancreas BXPC-3; for IC50: Homo sapiens
Method: as §2, §3

prostrate DU-145 = experiment: Cancer cell growth inhibition, prostate DU-145; assay type: cell-based, human; conditions: for IC50: Homo sapiens
Method: as §2, §3

ovary OVCAR-3 = experiment: Cancer cell growth inhibition, ovary OVCAR-3; assay type: cell-based, human; conditions: Table 1
Text: as §4

[5] = tested on: Mycobacterium tuberculosis H37Rv; experiment: Microplate Alamar Blue Assay, Mycobacterium tuberculosis; assay type: cell-based; conditions: 6.25 μg/ml
PKC alpha [6] = target: T1, PKC alpha; experiment: Inhibition of PKC catalytic activity (peptide substrate phosphorylation); assay type: biochemical
Text: We further evaluated the ability of the derivatives to inhibit PKC catalytic activity. […] Inhibition by 10c was 19.5±7.6% and inhibition by 4, 5, and 9a, b, c was 6% or less (all values are mean±SEM, three experiments). […] In both cases, the inhibition curves were steeper than predicted for a competitive inhibitor, consistent with a complicated mechanism of action (Hill coefficients for 10a and 10b of 1.5±0.1 and 2.0±0.5, respectively).

[7] = Table 2, read-out: Range of minimum inhibitory concentration
[8] = Table 1, read-out: Cancer Cell Line Results ED50
[9] = Table 3, read-out: Cancer cell growth inhibitory ED50
[10] = Table 5, read-out: Cancer Cell Line Results ED50

## COc1cc2ccnc3c2c(c1O)N(C)C=C3 [Compound 2, isoaaptamine]
tubulin
  IC50: 31 µM
Escherichia coli; Table 2
  Range of minimum inhibitory concentration: * (no inhibition at 64 ug/ml)
[1]; P388, Table 3, leukemia P-388, read-out: Cancer cell growth inhibitory ED50
  IC50: 1.6 µg/mL (≈ 7.01 µM)
[1]; Table 1, leukemia murine P388, read-out: Cancer Cell Line Results ED50
  IC50: 0.28 µg/mL (≈ 1.23 µM)
[1]; murine P388
  P388 ED50: 0.28 µg/mL
PKC alpha [2]
  inhibition at 30 µM: 13%
Micrococcus luteus; [7]
  MIC: 32 to 64 µg/mL (≈ 140 to 280 µM)
Enterobacter cloacae; Table 2
  Range of minimum inhibitory concentration: * (no inhibition at 64 ug/ml)
Renal A498
  Cancer Cell Line Results ED50: 2.20 µg/mL
CNS SF-295
  Cancer Cell Line Results ED50: 2.60 µg/mL
Neisseria gonorrhoeae; [7]
  MIC: < 0.5 µg/mL
Lung NCI-H460; [8]
  IC50: 2.4 µg/mL (≈ 10.5 µM)
Lung NCI-H460; [9]
  IC50: 2.9 µg/mL (≈ 12.7 µM)
[3]
  stability: relatively unstable
Candida albicans; Table 2
  Range of minimum inhibitory concentration: * (no inhibition at 64 ug/ml)
Enterococcus faecalis; [7]
  MIC: 32 to 64 µg/mL (≈ 140 to 280 µM)
CNS SF-268; [9]
  IC50: 2.2 µg/mL (≈ 9.64 µM)
Cryptococcus neoformans; [7]
  MIC: 64 µg/mL (≈ 280 µM)
Streptococcus pneumoniae; [7]
  MIC: 8 to 32 µg/mL (≈ 35 to 140 µM)
Staphylococcus aureus; [7]
  MIC: 16 to 32 µg/mL (≈ 70.1 to 140 µM)
Melanoma SK-MEL-5
  Cancer Cell Line Results ED50: 1.60 µg/mL
Colon KM 20L2; [8]
  IC50: 2.3 µg/mL (≈ 10.1 µM)
Colon KM 20L2; [9]
  IC50: > 10 µg/mL
Breast MCF-7; [9]
  IC50: 2.2 µg/mL (≈ 9.64 µM)
[4]; Table 2
  Range of minimum inhibitory concentration: * (no inhibition at 64 ug/ml)
Pancreas BXPC-3; [9]
  IC50: 4.1 µg/mL (≈ 18 µM)
Prostrate DU-145; Table 3, prostrate DU-145, read-out: Cancer cell growth inhibitory ED50
  IC50: 3.3 µg/mL (≈ 14.5 µM)
Ovary OVCAR-3
  Cancer Cell Line Results ED50: 1.20 µg/mL

## COc1ccc(CN2C=Cc3cc(OC)c(OC)c4c3c2cc[n+]4Cc2ccc(OC)cc2)cc1.[Br-] [Compound 10b, 8,9-Dimethoxy-1,4-bis-(4-methoxybenzyl)-4H-benzo-[de][1,6]naphthyridin-1-ium bromide]
Escherichia coli; Table 6
  Range of minimum inhibitory concentration: * (no inhibition at 64 μg/mL)
[1]; Table 5, leukemia P388, read-out: Cancer Cell Line Results ED50
  IC50: 1.3 µg/mL
PKC alpha [2]
  inhibition at 30 µM: 12.6%
[5]
  inhibition at 6.25 µg/mL: 97%
Micrococcus luteus; Table 6
  Range of minimum inhibitory concentration: <0.5 µg/mL
Enterobacter cloacae; Table 6
  Range of minimum inhibitory concentration: * (no inhibition at 64 μg/mL)
Neisseria gonorrhoeae; Table 6
  Range of minimum inhibitory concentration: 4 µg/mL
Lung NCI-H460; [10]
  IC50: 0.33 µg/mL
Candida albicans; Table 6
  Range of minimum inhibitory concentration: * (no inhibition at 64 μg/mL)
Enterococcus faecalis; Table 6
  Range of minimum inhibitory concentration: 16 to 32 µg/mL
CNS SF-268; [10]
  IC50: 0.27 µg/mL
Cryptococcus neoformans; Table 6
  Range of minimum inhibitory concentration: 32 to 64 µg/mL
PKC alpha [6]
  Hill coefficient of PKC inhibition curve: 2.0±0.5
PKC alpha [6]; 30 μM compound, 1 μM phorbol 12-myristate 13-acetate, 100 μg/ml phospholipid, mean±SEM, three experiments, read-out: percent inhibition of PKC catalytic activity
  inhibition at 30 µM: 84.6 ± 1.1%
PKC alpha [6]; complete dose response curves, mean±SEM, 3 experiments, read-out: ID50 for inhibition of PKC catalytic activity
  IC50: 7.4 ± 1.2 µM
Streptococcus pneumoniae; Table 6
  Range of minimum inhibitory concentration: 16 to 32 µg/mL
Staphylococcus aureus; Table 6
  Range of minimum inhibitory concentration: 4 µg/mL
Colon KM 20L2; [10]
  IC50: 0.13 µg/mL
Breast MCF-7; [10]
  IC50: 0.39 µg/mL
[4]; Table 6
  Range of minimum inhibitory concentration: * (no inhibition at 64 μg/mL)
Pancreas BXPC-3; [10]
  IC50: 0.11 µg/mL
Prostrate DU-145; DU-145, Table 5, prostate DRU-145, read-out: Cancer Cell Line Results ED50
  IC50: 0.1 µg/mL

## Disodium isoaaptamine 9-O-phosphate [Compound 11]
Escherichia coli; Table 2
  Range of minimum inhibitory concentration: * (no inhibition at 64 ug/ml)
[1]; Table 1, leukemia murine P388
  Cancer Cell Line Results ED50: 3.0 µg/mL
[1]; Table 3, leukemia P-388
  Cancer cell growth inhibitory ED50: 0.23 µg/mL
Micrococcus luteus; Table 2
  Range of minimum inhibitory concentration: * (no inhibition at 64 ug/ml)
Enterobacter cloacae; Table 2
  Range of minimum inhibitory concentration: * (no inhibition at 64 ug/ml)
Neisseria gonorrhoeae; Table 2
  Range of minimum inhibitory concentration: <0.5 µg/mL
Lung NCI-H460; Table 1
  Cancer Cell Line Results ED50: >10 µg/mL
Lung NCI-H460; Table 3
  Cancer cell growth inhibitory ED50: 1.9 µg/mL
[3]
  stability: more stable
Candida albicans; Table 2
  Range of minimum inhibitory concentration: * (no inhibition at 64 ug/ml)
Enterococcus faecalis; Table 2
  Range of minimum inhibitory concentration: * (no inhibition at 64 ug/ml)
CNS SF-268; Table 3
  Cancer cell growth inhibitory ED50: 0.28 µg/mL
Cryptococcus neoformans; Table 2
  Range of minimum inhibitory concentration: * (no inhibition at 64 ug/ml)
Streptococcus pneumoniae; Table 2
  Range of minimum inhibitory concentration: 16 to 32 µg/mL
Staphylococcus aureus; Table 2
  Range of minimum inhibitory concentration: 64 µg/mL
Colon KM 20L2; Table 1
  Cancer Cell Line Results ED50: >10 µg/mL
Colon KM 20L2; Table 3
  Cancer cell growth inhibitory ED50: 0.88 µg/mL
Breast MCF-7; Table 3
  Cancer cell growth inhibitory ED50: 2.2 µg/mL
[4]; Table 2
  Range of minimum inhibitory concentration: * (no inhibition at 64 ug/ml)
Pancreas BXPC-3; Table 3
  Cancer cell growth inhibitory ED50: 0.74 µg/mL
Prostrate DU-145; Table 3, prostrate DU-145
  Cancer cell growth inhibitory ED50: 0.52 µg/mL
